Assay results reported in DBAASP.
Values after ≈ are worked out from the molar mass of the structure shown.

Columns and labels:
Assay in all cases: ≥ marks a high value that may be exact or a test limit, other limits are often not marked, values filed in µg/mL are converted to µM
Arthrobacter sp. = test system: Arthrobacter sp.
Bacillus subtilis = test system: Bacillus subtilis
Bacillus thuringiensis = test system: Bacillus thuringiensis
Escherichia coli = test system: Escherichia coli
Pseudomonas sp. ADP = test system: Pseudomonas sp. ADP
Staphylococcus aureus = test system: Staphylococcus aureus
Cupriavidus necator H16 = test system: Cupriavidus necator H16
[1] = test system: Escherichia coli BL21(DE3)
Escherichia coli JM109 = test system: Escherichia coli JM109
[2] = test system: Pseudomonas putida GPp104
[3] = test system: Bacillus subtilis KCTC 3068
[4] = test system: Escherichia coli CCARM 1229
[5] = test system: Escherichia coli CCARM 1238
[6] = test system: Escherichia coli KCTC 1682
[7] = test system: Pseudomonas aeruginosa KCTC 1637
[8] = test system: Salmonella typhimurium CCARM 8003
[9] = test system: Salmonella typhimurium CCARM 8009
[10] = test system: Salmonella typhimurium KCTC 1926
[11] = test system: Staphylococcus aureus CCARM 3089
[12] = test system: Staphylococcus aureus CCARM 3114
[13] = test system: Staphylococcus aureus KCTC 1621
[14] = test system: Staphylococcus epidermidis KCTC 1917
[15] = test system: Aspergillus niger CECT 2694
[16] = test system: Fusarium oxysporum f. sp. lycopersici ATCC 201829
[17] = test system: Penicillium expansum EPS 26
[18] = test system: Rhizopus stolonifer CECT 2344

CC[C@H](C)[C@H](NC(=O)[C@H](CCCN=C(N)N)NC(=O)[C@H](CC(C)C)NC(=O)CN)C(=O)N[C@@H](CC(C)C)C(=O)N[C@@H](CC(C)C)C(=O)N[C@@H](CC(C)C)C(=O)N[C@@H](CCCCN)C(=O)N[C@H](C(N)=O)C(C)C [GLRILLLKV]
MIC (Arthrobacter sp.): ≥ 46.3 µM | MIC (Bacillus subtilis): 12.4 µM (≈ 12.7 µg/mL) | MIC (Bacillus thuringiensis): 30.8 µM (≈ 31.5 µg/mL) | MIC (Escherichia coli): 77.2 µM (≈ 79 µg/mL) | MIC (Pseudomonas sp. ADP): 15.4 µM (≈ 15.8 µg/mL) | MIC (Staphylococcus aureus): 3 µM (≈ 3.07 µg/mL)

CC[C@H](C)[C@H](NC(=O)[C@H](Cc1ccc(O)cc1)NC(=O)[C@@H](NC(=O)[C@@H]1CCCN1C(=O)[C@H](CCCN=C(N)N)NC(=O)[C@H](CC(N)=O)NC(=O)[C@H](CC(C)C)NC(=O)[C@@H](N)CCCN=C(N)N)C(C)C)C(=O)N1CCC[C@H]1C(=O)N[C@@H](CCC(N)=O)C(=O)N1CCC[C@H]1C(=O)N[C@@H](CCCN=C(N)N)C(=O)N1CCC[C@H]1C(=O)N1CCC[C@H]1C(=O)N[C@@H](Cc1cnc[nH]1)C(=O)N1CCC[C@H]1C(=O)N[C@@H](CCCN=C(N)N)C(=O)N[C@@H](CC(C)C)C(=O)O [RLNRPVYIPQPRPPHPRL]
MIC (Cupriavidus necator H16): ≥ 50 µM | MIC [1]: 1.25 µM (≈ 2.76 µg/mL) | MIC (Escherichia coli JM109): 10 µM (≈ 22.1 µg/mL) | MIC [2]: 12.5 µM (≈ 27.6 µg/mL)

CC[C@H](C)[C@H](NC(=O)[C@H](C)NC(=O)[C@H](CC(C)C)NC(=O)[C@H](Cc1c[nH]c2ccccc12)NC(=O)[C@H](CC(C)C)NC(=O)[C@@H](N)CCCN=C(N)N)C(=O)N[C@@H](Cc1c[nH]c2ccccc12)C(=O)N[C@@H](CCCN=C(N)N)C(=O)N[C@@H](CCCN=C(N)N)C(N)=O [RLWLAIWRR]
MIC [3]: 2 µM (≈ 2.54 µg/mL) | MIC [4]: 8 µM (≈ 10.1 µg/mL) | MIC [5]: 4 µM (≈ 5.07 µg/mL) | MIC [6]: 2 µM (≈ 2.54 µg/mL) | MIC [7]: 11.3 µM (≈ 14.4 µg/mL) | MIC [8]: 16 µM (≈ 20.3 µg/mL) | MIC [9]: 8 µM (≈ 10.1 µg/mL) | MIC [10]: 8 µM (≈ 10.1 µg/mL) | MIC [11]: 2 µM (≈ 2.54 µg/mL) | MIC [12]: 4 µM (≈ 5.07 µg/mL) | MIC [13]: 2 µM (≈ 2.54 µg/mL) | MIC [14]: 1 µM (≈ 1.27 µg/mL)

CC[C@H](C)[C@H](NC(=O)[C@H](CCCCN)NC(=O)[C@H](CCCCN)NC(=O)[C@H](Cc1ccccc1)NC(=O)[C@H](CC(C)C)NC(=O)[C@H](CCCCN)NC(=O)[C@@H](N)Cc1ccc(O)cc1)C(=O)N[C@@H](CC(C)C)C(=O)N[C@@H](CCCCN)C(=O)N[C@H](C(=O)N[C@@H](CC(C)C)C(N)=O)C(C)C [YKLFKKILKVL]
MIC [15]: 17.3 µM (≈ 24.1 µg/mL) | MIC [16]: 1.73 µM (≈ 2.41 µg/mL) | MIC [17]: ≥ 35.4 µM | MIC [18]: ≥ 70.7 µM
